“Also recorded” adds a separate entry of the source. Marks after values point to notes of the source that are not given here.
Columns and labels:
[1] = molecular target: T1, α1β2γ2 GABAA receptors (Homo sapiens, UniProt P14867+P18507+P47870); experiment: Whole-cell patch clamp, potentiation of GABA EC20 currents at recombinant synaptic-type receptors (LTK cells); assay type: cell-based; conditions: n = 3; for EC50: α1β2γ2, GABA EC20 (2 μM)
T1 construct: expressed in transfected cells
Method: (§1) Cellular electrophysiology was used to measure the pharmacological properties of ALLO, ganaxolone and SGE-516 in heterologous cell systems. Compounds were tested for their ability to affect GABA mediated currents at a submaximal agonist dose (GABA EC20=2 μM).
(§2) LTK cells were stably transfected with the α1β2γ2 subunits of the GABA receptor and CHO cells are transiently transfected with the α4β3γ subunits via the Lipofecatamine method. Cells were passaged at a confluence of about 50-80% and then seeded onto 35 mm sterile culture dishes containing 2 ml culture complete medium without antibiotics or antimycotics. Cells were cultivated at a density that enabled the recording of single cells without visible connections to other cells.
(§3) Whole-cell currents were measured with HEKA EPC-10 amplifiers using PatchMaster software. Bath solution for all experiments contained (in mM): NaCl 137, KCl 4, CaCl2 1.8, MgCl2 1, HEPES 10, D-Glucose 10, pH 7.4 with NaOH. Intracellular (pipette) solution contained (in mM): KCl 130, MgCl2 1, Mg-ATP 5, HEPES 10, EGTA 5, pH 7.2 with KOH. During experiments, cells and solutions were maintained at room temperature (19° C.-30° C.). For manual patchclamp recordings, cell culture dishes were placed on the dish holder of the microscope and continuously perfused (1 ml/min) with bath solution. After formation of a Gigaohm seal between the patch electrode and the cell (pipette resistance range: 2.5 MΩ-6.0MΩ; seal resistance range: >1 GΩ) the cell membrane across the pipette tip was ruptured to assure electrical access to the cell interior (whole-cell patch configuration).
(§4) Cells were voltage-clamped at a holding potential of −80 mV. GABAA receptors were activated by 2 μM GABA and compounds were sequentially applied at increasing concentrations for 30 s prior to a 2 s application of GABA. GABA and compounds were applied to cells via the Dynaflow perfusion system (Cellectricon, Sweden). Test compounds were dissolved in DMSO to form 10 mM stock solution and serially diluted to 0.01, 0.1, 1, and 10 μM in bath solution. […] All concentrations of test compound were tested on each cell. The relative percentage potentiation was defined as the peak amplitude in response to GABA EC20 in the presence of test compound divided by the peak amplitude in response to GABA EC20 alone, multiplied by 100.
(§5) ALLO and ganaxolone are known PAMs of both synaptic and extrasynaptic GABAAR-mediated currents. […] The α1β2γ2 or α4β3δ subunit combinations were chosen as representatives of typical synaptic and extrasynaptic GABAA receptors respectively.

[2] = molecular target: T2, α4β3δ GABAA receptors (Homo sapiens, UniProt O14764+P28472+P48169); experiment: Whole-cell patch clamp, potentiation of GABA EC20 currents at recombinant extrasynaptic-type receptors (CHO cells); assay type: cell-based
T2 construct: expressed in transfected cells; host or cells: CHO cells (transient transfection, Lipofectamine)
Method: as §1, §2, §3, §4, §5

[3] = system: sIPSCs in dentate gyms granule cells (DGGCs); experiment: Acute (allosteric) modulation of sIPSCs in DGGCs of hippocampal slices; assay type: cell-based, mice
Method: (§6) Brain slices were prepared from 3- to 5-week-old male C57 mice. Mice were anesthetized with isoflurane, decapitated, and brains were rapidly removed and submerged in ice-cold cutting solution containing (mM): 126 NaCl, 2.5 KCl, 0.5 CaCl2, 2 MgCl2, 26 NaHCO3, 1.25 NaH2PO4, 10 glucose, 1.5 sodium pyruvate, and 3 kynurenic acid. Coronal 310 μm thick slices were cut with the vibratome VT1000S (Leica Microsystems, St Louis, Mo., USA). The slices were then transferred into incubation chamber filled with prewarmed (31-32° C.) oxygenated artificial cerebro-spinal fluid (ACSF) of the following composition (in mM): 126 NaCl, 2.5 KCl, 2 CaCl2, 2 MgCl2, 26 NaHCO3, 1.25 NaH2PO4, 10 glucose, 1.5 sodium pyruvate, 1 glutamine, 3 kynurenic acid and 0.005 GABA bubbled with 95% O2-5% CO2. Slices were allowed to recover at 32° C. for at least 1 hr before recording. Exogenous GABA was added in an attempt to standardize ambient GABA in the slice and provide an agonist source for newly inserted extrasynaptic GABAARs.
(§7) After recovery, a single slice was transferred to a submerged, dual perfusion recording chamber (Warner Instruments, Hamden, Conn., USA) on the stage of an upright microscope (Nikon FN-1) with a 40× water immersion objective equipped with DIC/IR optics. Slices were maintained at 32° C. and gravity-superfused with ACSF solution throughout experimentation and perfused at rate of 2 ml/min with oxygenated (O2/CO2 95/5%) ACSF.
(§8) Whole-cell currents were recorded from the dentate gyms granule cells (DGGCs) in 310-μm-thick coronal hippocampal slices. Patch pipettes (5-7MΩ) were pulled from borosilicate glass (World Precision Instruments) and filled with intracellular solution of the composition (in mM) as follows: 140 CsCl, 1 MgCl2, 0.1 EGTA, 10 HEPES, 2 Mg-ATP, 4 NaCl and 0.3 Na-GTP (pH=7.2 with CsOH). A 5 min period for stabilization after obtaining the whole-cell recording conformation (holding potential of −60 mV) was allowed before currents were recorded using an Axopatch 200B amplifier (Molecular Devices), low-pass filtered at 2 kHz, digitized at 20 kHz (Digidata 1440A; Molecular Devices), and stored for offline analysis.
(§9) For tonic current measurements, an all-points histogram was plotted for a 10 s period before and during 100 μM picrotoxin application, once the response reached a plateau level. Recordings with unstable baselines were discarded. Fitting the histogram with a Gaussian distribution gave the mean baseline current amplitude and the difference between the amplitudes before and during picrotoxin was considered to be the tonic current. The negative section of the all-points histogram which corresponds to the inward IPSCs was not fitted with a Gaussian distribution (Kretschmannova et al., 2013; Nusser and Mody, 2002). Series resistance and whole-cell capacitance were continually monitored and compensated throughout the course of the experiment. Recordings were eliminated from data analysis if series resistance increased by >20%. Spontaneous inhibitory post-synaptic currents (sIPSCs) were analyzed using the mini-analysis software (version 5.6.4; Synaptosoft, Decatur, Ga.). Minimum threshold detection was set to 3 times the value of baseline noise signal. To assess sIPSC kinetics, the recording trace was visually inspected and only events with a stable baseline, sharp rising phase, and single peak were used to negate artifacts due to event summation. Only recordings with a minimum of 200 events fitting these criteria were analyzed. sIPSCs amplitude, and frequency from each experimental condition was pooled and expressed as mean±SEM. To measure sIPSC decay, 100 consecutive events were averaged and the decay was fitted to a double exponential and the weighted decay constant (tw) was determined. Statistical analysis was performed by using Student t-test (paired and unpaired where appropriate), where p<0.05 is considered significant.

[4] = system: tonic current in dentate gyms granule cells (DGGCs); experiment: Sustained (metabotropic) enhancement of tonic current in DGGCs after 15 min exposure and washout; assay type: cell-based, mice
Method: as §6, §7, §8, §9

[5] = system: tonic current in dentate gyms granule cells (DGGCs); experiment: Acute (allosteric) modulation of tonic current in DGGCs of hippocampal slices; assay type: cell-based, mice; conditions: 100 nM, 10 min acute exposure, then 100 μM picrotoxin; mean±SEM
Method: as §6, with “GABAARs. […]” for “GABAARs.”
Whole-cell currents were recorded from the dentate gyms granule cells (DGGCs) in 310-μm-thick coronal hippocampal slices. […] A 5 min period for stabilization after obtaining the whole-cell recording conformation (holding potential of −60 mV) was allowed before currents were recorded using an Axopatch 200B amplifier (Molecular Devices), low-pass filtered at 2 kHz, digitized at 20 kHz (Digidata 1440A; Molecular Devices), and stored for offline analysis.
For tonic current measurements, an all-points histogram was plotted for a 10 s period before and during 100 μM picrotoxin application, once the response reached a plateau level. […] Series resistance and whole-cell capacitance were continually monitored and compensated throughout the course of the experiment. […] Spontaneous inhibitory post-synaptic currents (sIPSCs) were analyzed using the mini-analysis software (version 5.6.4; Synaptosoft, Decatur, Ga.). […] Only recordings with a minimum of 200 events fitting these criteria were analyzed. sIPSCs amplitude, and frequency from each experimental condition was pooled and expressed as mean±SEM. […]

[6] = system: GABA receptor trafficking; experiment: GABA receptor trafficking measured by GABAergic current density (FIG. 14); assay type: cell-based; conditions: measured by the GABAergic current density
From the text: As shown in above examples, not all neurosteroids can modulate GABA receptor trafficking.

[7] = system: GT1-7 cells (co-express mPRα and GABAARs), β3 S408/9 phosphorylation; experiment: Immunoblot of β3 S408/9 phosphorylation in GT1-7 cells; assay type: cell-based; conditions: 100 nM, 15 min; n=6
Method: GT1-7 cells that co-express mPRα and GABAARs were used to measure the level of phosphorylation at S408/9 position of β3 subunit. Quantitative PCR analysis indicated the enrichment of the mPRα mRNA in GT1-7 cells (FIG. 15A upper, figure taken from Thomas and Pang 2012). Expression of mPRα was confirmed using western blotting. 10 and 15 μg of SDS-soluble extracts from GT1-7 cells were immunoblotted with an mPRα specific antibody (FIG. 15A lower).
GT1-7 cells were treated with 100 nM AllO or P4 for 15 min and immunoblotted with antibodies specifically recognizing β3, actin, and […] β3 subunit (pS408/9). The ratio of pS408/9 β3 subunit immunoreactivity were then normalized to levels seen in vehicle treated to controls, n=6.

[8] = system: GABAA receptor β3 subunit S408/9 phosphorylation; experiment: Immunoblot of β3 S408/9 phosphorylation in hippocampal slices; assay type: cell-based, mice; conditions: 100 nM
Method: Hippocampi were dissected out of acute slices from 8 to 12 week old C57/B16 mice and lysed with phosphate buffer including: 20 mM Tris-HCl, 150 mM NaCl, 5 mM EDTA, 10 mM NaF, 2 mM Na3VO4, 10 mM pyrophosphate, 0.1% SDS and 1% Triton after drug treatment. The β3 subunit was isolated using immunoprecipitation with β3 antibodies, after correction for protein content and the specific activity of labeling. Results were attained by SDS/PAGE followed by autoradiography (Abramian et al., 2010). For biotinylation experiments hippocampi were dissected out of acute slices from 8 to 12 week old C57/B16 mice and incubated in artificial cerebrospinal fluid (ACSF) described above at 30° C. for 1 h for recovery before experimentation. Slices were then placed on ice and incubated for 30 min with 1 mg/mL NHS-SS-biotin (Pierce). Excess biotin was removed by a 50 mM glycine quenching buffer, followed by washing of slices three times in ice-cold ACSF. The tissue was snap frozen on dry ice for 5 min, thawed at 4° C. and lysed. The lysates were solubilized with 2% Triton at 4° C. on a rotating wheel for 1 h. The insoluble material was removed by centrifugation, and 350-500 μg of protein lysate were incubated with NeutrAvidin beads (Pierce) for 18-24 h at 4° C. Bound material was eluted with sample buffer and subjected to SDS/PAGE and then immunoblotted with the indicated antibodies. Blots were then quantified using the CCD-based ChemiDoc XRS ? system. Antibodies against the β3 subunit and the phospho-β3 antibody were generated and verified by the laboratory of S.J.M. (Vien et al., 2015).
To produce antibodies specific for phosphorylated S443, rabbits were injected with a synthetic peptide corresponding to residues […] of the murine α4 subunit in which the serine residue corresponding to S443 was chemically phosphorylated; […]. Hippocampal slices were treated with vehicle (Con), or SGE-516 for 20 min. Slices were immunoblotted with pS408/9, β3, or actin antibodies. The ratio of pS408/9/β3 immunoreactivity was then normalized to control slices (100%=the line).
Hippocampal slices were treated with 100 nM ALLO or P4 (progesterone), and S408/9 phosphorylation was then determined as detailed above, n=4 slices (FIG. 18D). Hippocampal slices were treated with 100 nM ORG (FIG. 18E). S408/9 phosphorylation was examined using immunoblotting.

[9] = system: tonic current in dentate gyms granule cells (DGGCs); conditions: Abramian et al., 2010, 2014; cited from earlier work
[10] = 100 nM acute exposure, n = 5 to 7 neurons

T1 sequence (P14867 28-456): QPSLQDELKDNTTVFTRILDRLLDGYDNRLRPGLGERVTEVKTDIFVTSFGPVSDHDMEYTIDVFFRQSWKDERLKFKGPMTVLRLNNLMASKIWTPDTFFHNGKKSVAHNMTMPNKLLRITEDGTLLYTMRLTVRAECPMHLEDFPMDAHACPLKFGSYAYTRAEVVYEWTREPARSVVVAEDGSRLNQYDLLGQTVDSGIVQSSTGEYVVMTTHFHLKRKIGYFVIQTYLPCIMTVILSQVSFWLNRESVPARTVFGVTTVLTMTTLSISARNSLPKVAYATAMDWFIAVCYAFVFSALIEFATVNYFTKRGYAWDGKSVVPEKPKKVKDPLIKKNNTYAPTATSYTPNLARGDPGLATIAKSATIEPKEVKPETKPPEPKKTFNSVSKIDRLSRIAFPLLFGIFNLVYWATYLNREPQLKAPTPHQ
T1 sequence (P47870 25-512 limits assumed): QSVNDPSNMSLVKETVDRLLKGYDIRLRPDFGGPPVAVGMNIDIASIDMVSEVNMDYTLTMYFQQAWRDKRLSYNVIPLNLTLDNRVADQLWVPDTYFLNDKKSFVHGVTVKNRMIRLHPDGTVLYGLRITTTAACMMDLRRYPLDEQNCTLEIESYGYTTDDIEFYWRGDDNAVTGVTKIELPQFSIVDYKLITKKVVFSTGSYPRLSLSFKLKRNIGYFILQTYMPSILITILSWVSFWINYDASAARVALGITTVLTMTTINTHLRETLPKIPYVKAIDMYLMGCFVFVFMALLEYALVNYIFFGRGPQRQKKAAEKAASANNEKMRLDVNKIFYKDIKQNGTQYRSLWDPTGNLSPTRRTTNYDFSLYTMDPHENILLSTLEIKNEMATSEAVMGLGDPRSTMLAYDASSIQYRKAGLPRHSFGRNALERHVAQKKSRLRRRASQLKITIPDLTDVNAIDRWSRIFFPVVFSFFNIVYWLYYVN
T1 sequence (P18507 40-475): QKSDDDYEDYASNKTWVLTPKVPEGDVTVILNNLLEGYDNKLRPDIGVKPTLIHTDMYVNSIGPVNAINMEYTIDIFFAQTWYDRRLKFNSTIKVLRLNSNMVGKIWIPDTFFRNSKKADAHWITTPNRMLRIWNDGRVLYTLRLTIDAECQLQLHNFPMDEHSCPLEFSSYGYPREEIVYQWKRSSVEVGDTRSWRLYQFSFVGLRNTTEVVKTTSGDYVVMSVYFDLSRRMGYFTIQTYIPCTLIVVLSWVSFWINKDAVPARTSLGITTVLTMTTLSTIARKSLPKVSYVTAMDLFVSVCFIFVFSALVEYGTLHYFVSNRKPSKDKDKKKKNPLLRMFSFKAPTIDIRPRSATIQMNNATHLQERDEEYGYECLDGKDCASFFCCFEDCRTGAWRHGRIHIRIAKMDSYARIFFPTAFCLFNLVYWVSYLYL
T2 sequence (P48169 36-554): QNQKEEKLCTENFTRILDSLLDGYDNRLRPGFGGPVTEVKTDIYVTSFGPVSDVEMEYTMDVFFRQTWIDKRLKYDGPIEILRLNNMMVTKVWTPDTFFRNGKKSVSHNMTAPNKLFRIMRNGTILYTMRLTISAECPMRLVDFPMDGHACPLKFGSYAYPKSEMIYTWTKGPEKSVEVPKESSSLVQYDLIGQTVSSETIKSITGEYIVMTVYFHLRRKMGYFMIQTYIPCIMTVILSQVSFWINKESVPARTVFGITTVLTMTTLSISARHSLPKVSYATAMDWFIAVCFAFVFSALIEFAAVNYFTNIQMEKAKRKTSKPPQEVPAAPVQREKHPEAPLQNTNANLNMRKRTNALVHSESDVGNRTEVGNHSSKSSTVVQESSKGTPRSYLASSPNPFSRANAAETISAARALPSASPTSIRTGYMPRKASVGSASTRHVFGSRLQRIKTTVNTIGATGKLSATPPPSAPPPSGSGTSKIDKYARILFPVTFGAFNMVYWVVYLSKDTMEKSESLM
T2 sequence (P28472 26-473): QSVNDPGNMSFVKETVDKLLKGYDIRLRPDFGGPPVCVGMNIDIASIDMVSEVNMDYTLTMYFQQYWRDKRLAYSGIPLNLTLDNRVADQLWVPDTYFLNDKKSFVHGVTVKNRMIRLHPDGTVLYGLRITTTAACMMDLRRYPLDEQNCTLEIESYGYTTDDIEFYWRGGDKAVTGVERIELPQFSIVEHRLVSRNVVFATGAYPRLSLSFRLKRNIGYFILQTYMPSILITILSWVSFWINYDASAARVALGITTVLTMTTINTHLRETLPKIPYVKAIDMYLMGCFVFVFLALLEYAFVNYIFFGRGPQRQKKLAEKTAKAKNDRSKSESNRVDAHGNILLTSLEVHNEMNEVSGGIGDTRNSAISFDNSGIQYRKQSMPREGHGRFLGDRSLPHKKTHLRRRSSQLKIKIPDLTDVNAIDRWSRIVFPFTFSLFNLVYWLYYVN
T2 sequence (O14764 25-452): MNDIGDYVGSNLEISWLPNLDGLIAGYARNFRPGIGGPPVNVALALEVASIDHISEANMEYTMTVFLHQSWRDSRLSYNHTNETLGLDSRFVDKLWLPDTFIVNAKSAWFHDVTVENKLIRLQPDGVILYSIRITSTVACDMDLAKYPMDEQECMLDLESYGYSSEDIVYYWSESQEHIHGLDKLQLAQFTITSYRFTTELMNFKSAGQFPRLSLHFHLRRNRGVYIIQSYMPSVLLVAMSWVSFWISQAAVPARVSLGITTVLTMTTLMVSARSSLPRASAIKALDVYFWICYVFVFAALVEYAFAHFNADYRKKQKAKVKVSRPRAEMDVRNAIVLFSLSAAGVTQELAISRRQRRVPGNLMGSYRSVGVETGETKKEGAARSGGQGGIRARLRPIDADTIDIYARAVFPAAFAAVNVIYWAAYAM

SMILES: CC(=O)[C@H]1CC[C@H]2[C@@H]3CC[C@H]4C[C@](C)(O)CC[C@]4(C)[C@H]3CC[C@]12C [Ganaxolone]
- EC50 ([1]; EC50, potentiation of GABA current): 256 nM
- EC50 ([1]; pEC50 ± S.E.M.): 158 nM
- Emax ± S.E.M., α1β2γ2 ([1]; relative percentage potentiation of GABA EC20 peak current): 400 ± 27%
- EC50 [2]: 94 nM
- Emax ([2]; CHO, relative percentage potentiation of GABA EC20 peak current, n = 3, read-out: Emax ± S.E.M., α4β3δ): 225%
- Emax ± S.E.M., α4β3δ ([2]; relative percentage potentiation of GABA EC20 peak current, n = 3): 225 ± 8%
- mean sIPSC amplitude before versus during exposure ([3]; 100 nM): no significant difference
- mean sIPSC decay time in the presence of compound ([3]; 100 nM): significantly increased
- sIPSC Amplitude [3, 10]: 55.1 ± 0.7 pA
- sIPSC Decay [3, 10]: 23.6 ± 2.9^c ms
- sIPSC Frequency [3, 10]: 5.6 ± 1.7 Hz
- tonic current after exposure and washout ([4]; 1 μM, 15 min incubation, 30-60 min wash, vehicle 43.9±5.7 pA): 57.4±6.3 pA
- change of tonic current versus vehicle ([4]; 1 μM, 15 min incubation, wash): did not significantly alter; also recorded: No significant change
- tonic current during acute exposure [5]: 78.8±23.2 pA
- modulation of GABA receptor trafficking [6]: did not modulate GABA receptor trafficking

SMILES: CC(=O)[C@H]1CC[C@H]2[C@@H]3CCC4=CC(=O)CC[C@]4(C)[C@H]3CC[C@]12C [P4, Progesterone]
- S408/9 phosphorylation (pS408/9/β3) in GT1-7 cells [7]: increase
- S408/9 phosphorylation in hippocampal slices [8]: regulated
- amplitude and density of GABAergic tonic current at varying doses ([4]; protocol as in FIG. 3, n=6-8 cells): dosage-dependent effect; also recorded: dosage dependent effect

SMILES: C[C@@]1(O)CC[C@H]2[C@H](CC[C@@H]3[C@@H]2CC[C@]2(C)[C@@H](C(=O)Cn4cc(C#N)cn4)CC[C@@H]32)C1 [SAGE-217]
- modulation of GABA receptor trafficking [6]: modulated GABA receptor trafficking

SMILES: C[C@]12CC[C@@H](O)C[C@H]1CC[C@@H]1[C@@H]2CC[C@]2(C)[C@@H](C(=O)CO)CC[C@@H]12 [THDOC, Tetrahydrodeoxy- corticosterone]
- sustained effects on GABAergic tonic current [9]: long lasting increase

SMILES: CN1C(=O)CN=C(c2ccccc2)c2cc(Cl)ccc21 [diazepam]
- Emax ([1]; LTK, relative percentage potentiation of GABA EC20 peak current, read-out: Emax ± S.E.M., α1β2γ2): 184%
- effect on GABA evoked currents in α4β3δ receptors ([2]; data not shown): did not alter

Source: patent publication US20200341000A1, “METHOD OF SCREENING COMPOUNDS FOR TREATING CNS DISORDERS” (SAGE THERAPEUTICS, INC., priority 2017, published 2020)
